Laboratory results: PubChem BioAssay (NCI)
Several values for one entry are separate records, joined by “and”; a condition that tells them apart may be missing. Equal entries are not always repeated.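 Step 1: Grow cells in 96-well plates. Step 2: Expose to compound for 48 hours at 5 concentrations. Step 3: Interpolate endpoints linearly; if unreached, use highest concentration. GI50 marks 50% less growth. TGI: total growth inhibition.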

Tests used:
Assay in all cases: DTP human tumour cell line panel, 48 h
M19-MEL melanoma = tested on: M19-MEL melanoma
HOP-18 NSCLC = tested on: HOP-18 NSCLC
DLD-1 colon = tested on: DLD-1 colon
LXFL 529 NSCLC = tested on: LXFL 529 NSCLC
SNB-78 CNS = tested on: SNB-78 CNS
RXF-631 renal = tested on: RXF-631 renal
XF 498 CNS = tested on: XF 498 CNS
DMS 114 small cell lung = tested on: DMS 114 small cell lung
MDA-N = tested on: MDA-N

SMILES | TGI (M19-MEL melanoma) [µM] | TGI (HOP-18 NSCLC) [µM] | TGI (DLD-1 colon) [µM] | TGI (LXFL 529 NSCLC) [µM] | TGI (SNB-78 CNS) [µM] | TGI (RXF-631 renal) [µM] | TGI (XF 498 CNS) [µM] | TGI (DMS 114 small cell lung) | TGI (MDA-N) [µM] | further results
O=C(c1ccccc1)c1nnc(C(=O)c2ccccc2)nn1 | > 344 | > 344 | > 344 | > 344 | > 344 |  |  |  |  | 
C/C(CC(=O)Nc1cc(Cl)c(Cl)cc1Cl)=N\NC(N)=O | > 100 |  | > 100 | > 100 |  | > 100 | > 100 | > 100 µM |  | 
N#Cc1cc([N+](=O)[O-])ccc1NC(=O)C(=O)Nc1n[nH]c(N)n1 | > 100 |  | > 100 | > 100 | > 100 | > 100 | > 100 | > 100 µM |  | 
CC(C)(CC(=O)Nc1ccccc1)C(=O)O |  |  |  |  |  |  |  |  | > 100 | 
Cc1ccc2c(c1)[n+]([O-])c(N)n[n+]2[O-] |  |  |  |  |  |  |  |  | > 100 | 
CC[C@@H]1CN(C)[C@H]2Cc3c([nH]c4ccccc34)C(=O)C[C@H]1C2C(=O)OC (stereo partly specified) |  |  |  |  |  |  |  |  | > 100 | 
CC(C)(C)C1C=C(Sc2ccccc2)C(=O)O1 (stereo unspecified) | > 100 | > 100 | > 100 | > 100 | > 100 |  |  | > 100 µM |  | 
O=C(/N=N/C(=O)OCc1ccccc1)OCc1ccccc1 | > 100 | > 100 |  | > 100 | > 100 | > 100 | > 100 | > 100 µM |  | 
O=C1CCC(=O)N2CCCCN12 | > 100 | > 100 | > 100 | > 100 | > 100 | > 100 |  | > 100 µM |  | 
Cc1cc2c(cc1C)[n+](=O)c(C(=O)C/C(=N/NC(=O)CC#N)C(=O)Nc1ccccc1C(F)(F)F)c(C)n2[O-] | > 100 | > 100 |  | > 100 |  | 33.3 | > 100 | > 100 µM |  | 
COc1ccc(-c2cc(=O)c3ccc(O)cc3o2)cc1OC |  |  |  |  |  |  |  |  | > 100 | 
CC[C@@]1(O)C(=O)OCc2c1cc1n(c2=O)Cc2c-1nc1cc3c(cc1c2CCl)OCO3 |  |  |  |  |  |  |  |  | 1.63 | GI50 (MDA-N): < 0.01 µM
CCc1ccc(/C=C\c2cc(OC)c(OC)c(OC)c2)cc1 | > 100 |  | 27.8 | 27.3 | > 100 |  |  | 0.228 µM and 0.057 µM | 0.00395 | GI50 (M19-MEL melanoma): 0.0392 µM; GI50 (DLD-1 colon): 0.0358 µM; GI50 (DMS 114 small cell lung): 0.0156 µM; GI50 (LXFL 529 NSCLC): 0.0233 µM; GI50 (SNB-78 CNS): 0.0224 µM
O=C1O[C@@H](c2ccc3c(c2)OCO3)C2C(=O)O[C@@H](c3ccc4c(c3)OCO4)C12 (stereo partly specified) | > 100 | > 100 |  |  | > 100 | > 100 | > 100 | > 100 µM |  | 
C/C(CC(=O)Nc1ccc(C)cc1C)=N/N=C(N)N | > 100 |  | > 100 | > 100 | > 100 | > 100 | > 100 | > 100 µM |  | 
CC(=O)OCCN1c2ccccc2Sc2cnccc21 |  |  |  |  |  |  |  |  | > 10 | 
O=C1C2c3[nH]c4ccccc4c3C3CCCCCCC3C2C(=O)N1c1ccccc1 (stereo unspecified) | 37.2 |  |  | 33.8 | 32.4 | 17.6 | 10.7 | 17.5 µM |  | 
CCC[CH2][Sn]1([CH2]CCC)[O]Cc2nc(C)ccc2[O]1 | 19.2 |  | 21.9 | 5.75 | 6.39 |  | 7.8 | 9.3 µM |  | GI50 (M19-MEL melanoma): 4.49 µM; GI50 (XF 498 CNS): 2.34 µM; GI50 (DLD-1 colon): 10.2 µM; GI50 (DMS 114 small cell lung): 3.07 µM; GI50 (LXFL 529 NSCLC): 2.07 µM; GI50 (SNB-78 CNS): 2.38 µM
COc1ccc(C2=CC3CCC2C3)cc1 (stereo unspecified) |  | > 100 | > 100 | > 100 | > 100 |  | > 100 |  |  | 
CC1=NN(C(=O)Nc2ccccc2)C(=O)C2CCC(=O)N12 (stereo unspecified) | > 100 |  | > 100 | > 100 | > 100 | > 100 | > 100 | > 100 µM |  | 
[Cl-].[Dy+3].[O-]/N=C(\c1ccccc1)c1ccccn1.[O-]/N=C(\c1ccccc1)c1ccccn1.[O-]/N=C(\c1ccccc1)c1ccccn1 | 94.6 |  | > 100 | > 100 |  |  |  | 77.6 µM |  | GI50 (M19-MEL melanoma): 31.3 µM; GI50 (DLD-1 colon): 35.9 µM; GI50 (DMS 114 small cell lung): 24.6 µM; GI50 (LXFL 529 NSCLC): 41.2 µM
Cn1c(=O)c2[nH]c(SCc3ccccn3)nc2n(C)c1=S |  |  |  |  |  |  |  |  | > 100 | 
CC(C)C(=O)NC(=S)Nc1ccc([N+](=O)[O-])cc1C#N | > 100 | > 100 | > 100 | > 100 | > 100 | > 100 | > 100 | > 100 µM |  | 

SMILES | TGI (M19-MEL melanoma) [µM] | TGI (HOP-18 NSCLC) [µM] | TGI (DLD-1 colon) [µM] | TGI (LXFL 529 NSCLC) [µM] | TGI (SNB-78 CNS) [µM] | TGI (RXF-631 renal) [µM] | TGI (XF 498 CNS) [µM] | TGI (DMS 114 small cell lung) | TGI (MDA-N) [µM] | further results
O=C1CCC2(c3ccc(F)cc3)Nc3cc(Cl)ccc3N12 (stereo unspecified) | > 100 | > 100 | > 100 | > 100 | > 100 |  | 86.2 | > 100 µM |  | 
O/N=C/C1c2ccccc2-c2ccccc21 |  |  |  |  |  |  |  |  | 31.9 | 
COc1ccc(/C=C/CN(C)CCc2ccccc2)cc1OC | > 100 |  |  | > 100 | > 100 |  |  | > 100 µM |  | 
O=C(O)CNS(=O)(=O)c1ccc(NCc2ccccc2)cc1 | > 100 | > 100 | > 100 | > 100 | > 100 |  | > 100 | > 100 µM |  | 
C[C@]12CC[C@H]3[C@@H](CC=C4C[C@@H](O)CC[C@@]43C)[C@@H]1CC[C@@H]2N(CCO)CCO |  |  |  |  |  |  |  |  | > 100 | 
CSC(C1c2ccccc2N(c2ccc(C)cc2)C2=NC(=O)N(C)C(=O)C21Cl)S(=O)(=O)c1ccc(C)cc1 (stereo unspecified) | 69.2 |  | 33.5 | 42.1 | 80.1 |  | 65.2 | 49.8 µM |  | 
COC(=O)/C(=N/NC(=O)C[N+](C)(C)C)C(C(=O)OC)C(=O)C(=O)Nc1ccc(F)cc1 (stereo unspecified) | > 100 | > 100 | > 100 | > 100 | > 100 | > 100 |  | > 100 µM |  | 
COc1ccc(/C=C/c2nccc3ccccc23)cc1OC |  |  |  |  |  |  |  |  | > 10 | 
CCC[CH2][Sn]([CH2]CCC)([O]C(=O)c1cccnc1SC)[O]C(=O)c1cccnc1SC | 1.57 | 2.8 | 1.61 | 0.238 | 1.52 |  | 2.5 | 0.829 µM |  | GI50 (M19-MEL melanoma): 0.36 µM; GI50 (HOP-18 NSCLC): 1.48 µM; GI50 (XF 498 CNS): 1.25 µM; GI50 (DLD-1 colon): 0.347 µM; GI50 (DMS 114 small cell lung): 0.128 µM; GI50 (LXFL 529 NSCLC): 0.059 µM; GI50 (SNB-78 CNS): 0.0893 µM
CCCCN=C(NC#N)NCCCC | > 100 | > 100 | > 100 | > 100 | > 100 | > 100 | > 100 | > 100 µM |  | 
COc1ccc(NC2=CC(=O)C(=O)c3ccccc32)nn1 |  |  |  |  |  |  |  |  | 1.16 | 
COC(=O)C1Cc2c(n(Cc3ccccc3)c3ccccc23)C(CCC(=O)O)N1C(C)C (stereo unspecified) | > 100 | > 100 | > 100 | > 100 | > 100 | > 100 |  | > 100 µM |  | 
CCOC(=O)[C]1([Bi]([CH3])[CH3])N=NC(C(=O)OC)=C1C(=O)OC (stereo unspecified) | 32.5 | 31 | 32.5 | 35.2 | > 100 | 31.4 |  | 40 µM |  | GI50 (RXF-631 renal): 17.2 µM; GI50 (M19-MEL melanoma): 17.6 µM; GI50 (HOP-18 NSCLC): 17.3 µM; GI50 (DLD-1 colon): 18.3 µM; GI50 (DMS 114 small cell lung): 20 µM; GI50 (LXFL 529 NSCLC): 14.5 µM; GI50 (SNB-78 CNS): 27.4 µM
O=c1c2cc([N+](=O)[O-])ccc2sc2ccsc12 | > 100 | > 100 | > 100 | > 100 | > 100 | > 100 | > 100 | > 100 µM |  | 
COC1/C=C\C=C(/C)C(=O)NC2=CC(=O)C(=O)C(=C2O)CC(C)CC(OC)C(O)C(C)/C=C(\C)C1OC(N)=O (stereo unspecified) |  |  |  |  |  |  |  |  | 12.2 | 
CCC(C)c1c(Cl)nc(Cl)nc1Cl (stereo unspecified) |  |  |  |  |  |  |  |  | 23.8 | 
COC12C=C(C)C(CC1)CC2C(=O)O (stereo unspecified) | > 100 | > 100 | > 100 | > 100 | > 100 |  | > 100 |  |  | 
CC(=O)CNC(=O)OC(C)(C)C | > 100 |  | > 100 |  | > 100 |  | > 100 | > 100 µM |  | 
O=C(/C=C/c1c(O)ccc2ccccc12)c1cccc(O)c1 | 33.3 | > 86.8 | > 100 | > 100 | > 100 |  | > 100 | > 77.3 µM |  | 
OCC(O)CC[CH2][Sn]([Br])([c]1ccccc1)[c]1ccccc1 (stereo unspecified) | > 100 | > 100 | > 100 | > 100 | > 100 |  | > 100 |  |  | GI50 (M19-MEL melanoma): > 100 µM; GI50 (HOP-18 NSCLC): > 100 µM; GI50 (XF 498 CNS): > 100 µM; GI50 (DLD-1 colon): > 100 µM; GI50 (LXFL 529 NSCLC): 88.5 µM; GI50 (SNB-78 CNS): > 100 µM
CN1CCN(C)C12C=c1ccccc1=CC21CC1 | 37.1 | > 100 | 68.2 | 31.2 | > 100 | > 100 | 49.5 | 36.3 µM | > 63.9 | 
CC[CH2][Sn]([CH2]CC)([O]C(=O)c1cccnc1SC)[O][Sn]([CH2]CC)([CH2]CC)[O]C(=O)c1cccnc1SC | 0.337 | 1.81 | 0.998 | 0.155 | 1.14 |  | 0.296 | 0.222 µM | 2.52 | GI50 (M19-MEL melanoma): 0.0833 µM; GI50 (HOP-18 NSCLC): 0.689 µM; GI50 (XF 498 CNS): 0.159 µM; GI50 (DLD-1 colon): 0.219 µM; GI50 (DMS 114 small cell lung): 0.0726 µM; GI50 (LXFL 529 NSCLC): 0.0198 µM; GI50 (SNB-78 CNS): 0.138 µM; GI50 (MDA-N): 1.27 µM
COc1ccc(-c2cc(=O)c3c(OC)c(OC)c(OC)cc3o2)cc1 |  |  |  |  |  |  |  |  | > 100 | 
